According to ChEMBL document CHEMBL3352337, “Scaffold-switching: an exploration of 5,6-fused bicyclic heteroaromatics systems to afford antituberculosis activity akin to the imidazo[1,2-a]pyridine-3-carboxylates” (Bioorg Med Chem Lett, 2014):
≈ marks a conversion by molar mass, not a printed value.

Test system: Mycobacterium tuberculosis variant bovis BCG
Test: Antimycobacterial activity against Mycobacterium bovis BCG ATCC 35734 in 7H12 medium after 6 days and 18 hrs after adding resazurin dye/Tween 80 by Microplate Alamar Blue assay
Type: functional

| Compound | MIC [µM] |
| --- | --- |
| CO[C@H]1/C=C/O[C@@]2(C)Oc3c(C)c(O)c4c(O)c(c(/C=N/N5CCN(C)CC5)c(O)c4c3C2=O)NC(=O)/C(C)=C\C=C\[C@H](C)[C@H](O)[C@@H](C)[C@@H](O)[C@@H](C)[C@H](OC(C)=O)[C@@H]1C [RIFAMPIN] | < 0.004 |
| Cc1ccn2c(C(=O)NCc3ccccc3)nnc2c1 | > 128 |
| Cc1ccn2c(C)c(C(=O)NCc3ccccc3)nc2c1 | > 128 |
| Cc1ccc2nc(C)c(C(=O)NCc3ccccc3)n2c1 | 0.96 (≈ 0.268 µg/mL) |
| Cc1ccc2nc(C)c(C(=O)NCc3ccccc3)n2n1 | > 128 |
| COc1c(N2C[C@@H]3CCCN[C@@H]3C2)c(F)cc2c(=O)c(C(=O)O)cn(C3CC3)c12 [MOXIFLOXACIN] | 0.06 (≈ 0.0241 µg/mL) |
| Cc1ccc2c(C(=O)NCc3ccccc3)c(C)[nH]c2c1 | > 128 |
| Cc1cc(C)n2nc(C(=O)NCc3ccccc3)nc2n1 | > 128 |
| Cc1cnc2nc(C)c(C(=O)NCc3ccccc3)n2c1 | 7.8 (≈ 2.19 µg/mL) |
| Cc1ccc2c(C(=O)NCc3ccccc3)n[nH]c2c1 | > 128 |
| NNC(=O)c1ccncc1 [ISONIAZID] | 0.41 (≈ 0.0562 µg/mL) |
